Test results taken from the supplement of paper PMC10307832.

How the values were obtained:
Assay in all cases: relative viability (nuclei count vs DMSO), 5 days (fraction); higher = more cells survive
[1] = compound: OCc1c[nH]c2ccccc12 [Indole-3-carbinol] + CS(=O)(=O)N1CCN(Cc2cc3nc(-c4cccc5[nH]ncc45)nc(N4CCOCC4)c3s2)CC1 [Pictilisib] (partner 1 µM)
How it was run: (§1)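 Relative viability is defined as nuclei in treated wells over nuclei in vehicle wells. Duplicate plates were run and medians reported. Lung cancer cell lines in 1536-well plates were dosed by pin tool one day after seeding, with one drug or with a fixed anchor-drug dose plus five library-drug doses (not always all listed) in √10 steps, and nuclei were counted after 5 days.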

[2] = compound: OCc1c[nH]c2ccccc12 [Indole-3-carbinol] + CC(=O)Nc1cccc(-n2c(=O)n(C3CC3)c(=O)c3c(Nc4ccc(I)cc4F)n(C)c(=O)c(C)c32)c1 [Trametinib] (partner 0.02 µM)
How it was run: as §1

[3] = compound: OCc1c[nH]c2ccccc12 [Indole-3-carbinol] + NC(=O)Nc1cc(-c2cccc(F)c2)sc1C(=O)N[C@H]1CCCNC1 [AZD7762] (partner 0.2 µM)
How it was run: as §1

[4] = compound: OCc1c[nH]c2ccccc12 [Indole-3-carbinol] + O=C(c1cc(Cc2n[nH]c(=O)c3ccccc23)ccc1F)N1CCN(C(=O)C2CC2)CC1 [Olaparib] (partner 8 µM)
How it was run: as §1

[5] = compound: OCc1c[nH]c2ccccc12 [Indole-3-carbinol] + C[C@@H](Oc1cc(-c2cnn(C3CCNCC3)c2)cnc1N)c1c(Cl)ccc(F)c1Cl [Crizotinib] (partner 1 µM)
How it was run: as §1

Cell Line | relative viability ([1]; first compound 0.253 µM) | relative viability ([1]; first compound 0.8 µM) | relative viability ([1]; first compound 2.53 µM) | relative viability ([1]; first compound 8 µM) | relative viability ([2]; first compound 0.253 µM) | relative viability ([2]; first compound 0.8 µM) | relative viability ([2]; first compound 2.53 µM) | relative viability ([2]; first compound 8 µM) | relative viability ([3]; first compound 0.253 µM) | relative viability ([3]; first compound 0.8 µM) | relative viability ([3]; first compound 2.53 µM) | relative viability ([3]; first compound 8 µM) | relative viability ([4]; first compound 0.253 µM) | relative viability ([4]; first compound 0.8 µM) | relative viability ([4]; first compound 2.53 µM) | relative viability ([4]; first compound 8 µM) | relative viability ([5]; first compound 0.253 µM) | relative viability ([5]; first compound 0.8 µM) | relative viability ([5]; first compound 2.53 µM) | relative viability ([5]; first compound 8 µM)
EMC-BAC-2 | 0.532 | 0.453 | 0.555 | 0.359 | 0.789 | 0.918 | 0.879 | 0.849 | 1.15 | 1.17 | 1.05 | 1.11 | 0.493 | 0.51 | 0.504 | 0.467 | 0.72 | 0.785 | 0.794 | 0.666
NCI-H661 | 0.389 | 0.325 | 0.448 | 0.384 | 0.526 | 0.564 | 0.606 | 0.58 | – | – | – | – | 0.775 | 0.771 | 0.866 | 0.742 | 1.05 | – | 1.16 | 0.977
LU99A | 0.318 | 0.367 | 0.302 | 0.35 | 0.5 | 0.517 | 0.521 | 0.545 | 0.379 | 0.392 | 0.434 | 0.329 | 0.256 | 0.299 | 0.23 | 0.268 | 0.569 | 0.568 | 0.532 | 0.506
LK-2 | 0.475 | 0.46 | 0.977 | 0.628 | 0.674 | 0.538 | 0.812 | 0.732 | 0.454 | 0.363 | 0.324 | 0.539 | 0.877 | 0.675 | 0.808 | 0.713 | 0.239 | 0.218 | 0.198 | 0.229
NCI-H3122 | 0.553 | 0.673 | 0.592 | 0.588 | 0.229 | 0.255 | 0.234 | 0.248 | 1.1 | 1 | 1.07 | 0.899 | 0.65 | 0.612 | 0.495 | 0.538 | 0.289 | 0.293 | 0.281 | 0.292
NCI-H2347 | 0.673 | 0.532 | 0.719 | 0.599 | 0.422 | 0.276 | 0.296 | 0.29 | 0.936 | 0.676 | 0.702 | 0.765 | 0.624 | 0.582 | 0.634 | 0.549 | 0.747 | 0.607 | 0.706 | 0.671
NCI-H1563 | 0.667 | 0.611 | 0.664 | 0.662 | – | – | – | – | – | – | – | – | – | – | – | – | 0.769 | 0.883 | 0.866 | 0.879
HCC-827 | 0.926 | 1.04 | 0.841 | 1.07 | 0.516 | 0.542 | 0.505 | 0.533 | 0.228 | 0.192 | 0.213 | 0.265 | 0.67 | 0.621 | 0.719 | 0.61 | 0.9 | 1.03 | 0.945 | 0.892
NCI-H1666 | 0.339 | 0.548 | 0.539 | 0.394 | 0.828 | 0.85 | 0.939 | 0.788 | 0.914 | 0.743 | 0.827 | 0.739 | 0.803 | 0.731 | 0.766 | 0.728 | 1.11 | 0.994 | 1.42 | 0.892
NCI-H358 | 0.408 | 0.354 | 0.344 | 0.32 | 0.119 | 0.122 | 0.139 | 0.121 | 0.56 | 0.489 | 0.591 | 0.507 | 0.619 | 0.659 | 0.717 | 0.569 | 0.64 | 0.698 | 0.735 | 0.461
201T | 0.653 | 0.682 | 0.621 | 0.699 | 0.704 | 0.705 | 0.697 | 0.692 | 0.623 | 0.591 | 0.614 | 0.725 | 0.849 | 0.856 | 0.843 | 0.848 | 1.03 | 1.02 | 1.07 | 1.01
PC-3 [JPC-3] | 0.817 | 0.801 | 0.649 | 0.73 | 0.749 | 0.719 | 0.678 | 0.667 | 0.723 | 0.925 | 0.765 | 0.91 | 1.17 | 1.29 | 1.11 | 1.03 | 0.946 | 1.08 | 0.997 | 0.969
NCI-H2405 | 0.49 | 0.472 | 0.489 | 0.483 | 0.634 | 0.615 | 0.672 | 0.703 | 0.839 | 0.727 | 0.755 | 0.659 | 0.907 | 0.889 | 0.908 | 0.823 | 0.875 | 0.825 | 0.901 | 0.78
LXF-289 | 0.837 | 0.814 | 0.807 | 0.747 | 0.678 | 0.693 | 0.651 | 0.656 | 1.25 | 1.1 | 1.13 | 1.03 | 1.24 | 1.09 | 1.09 | 1.08 | 0.863 | 0.933 | 0.824 | 0.729
EKVX | 0.43 | 0.449 | 0.418 | 0.402 | 0.298 | 0.344 | 0.297 | 0.313 | 0.759 | 0.752 | 0.744 | 0.633 | 0.797 | 0.938 | 0.851 | 0.85 | 1.09 | 1.24 | 0.648 | 0.864
A-427 | 0.74 | 0.66 | 0.679 | 0.588 | 0.713 | 0.717 | 0.76 | 0.685 | 0.72 | 0.763 | 0.908 | 0.778 | 0.661 | 0.714 | 0.788 | 0.728 | 0.888 | 0.847 | 1.18 | 0.828
IA-LM | 0.348 | 0.291 | 0.362 | 0.237 | – | – | – | – | – | – | – | – | 0.89 | 0.815 | 0.868 | 0.752 | 0.722 | 1.08 | 0.863 | 0.738
